Data as given in PMC7052197 (Scientific Reports, 2020).
Ends that are not written are not given here.

Assays:
αBgt = αBgt (Bungarus multicinctus, UniProt P60615); experiment: biochemical; assay type: binding
αCtx = αCtx (Naja kaouthia, UniProt P01391); experiment: biochemical; assay type: binding
Chain of αCtx (P01391 whole entry, looked up): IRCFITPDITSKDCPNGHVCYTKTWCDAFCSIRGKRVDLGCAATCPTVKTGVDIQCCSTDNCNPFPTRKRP

Chain of αBgt (P60615 22-95 limits assumed): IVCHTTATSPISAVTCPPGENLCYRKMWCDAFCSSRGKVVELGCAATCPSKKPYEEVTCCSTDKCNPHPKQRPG

WRYYESSLLPYPD [HAP]
Kd (αBgt): 29 ± 8 nM | Kd (αCtx): > 10000 nM

WRYYESSLEPYPD [HAP[L9E]]
Kd (αBgt): 91 ± 33 nM | Kd (αCtx): 7000 ± 1000 nM
